Measurements as given in patent US10238637B2, “Modulators of the adenosine A3 receptors” (PALOBIOFARMA, S.L., priority 2015, dated 2019).

Tests used:
[1] = test system: rheumatoid arthritis; settings: RA patients, oral administration twice daily for 12 weeks; cited from earlier work
[2] = test system: intestinal inflammation and spontaneous colitis; settings: mice; cited from earlier work
[3] = test system: ischemia induced renal failure; settings: rats, ischemia induced with micro aneurysm clips after pretreatment; cited from earlier work
[4] = test system: experimental autoimmune uveitis; settings: experimental autoimmune uveitis model; cited from earlier work
[5] = molecular target: T1, adenosine A1 receptor (Homo sapiens, UniProt P30542); assay: Adenosine receptor subtypes competition radioligand binding assay, A1 receptor; settings: human recombinant membranes
T1 construct: purchased Receptor Biology, Inc. (USA)
T1 sequence (P30542 1-326): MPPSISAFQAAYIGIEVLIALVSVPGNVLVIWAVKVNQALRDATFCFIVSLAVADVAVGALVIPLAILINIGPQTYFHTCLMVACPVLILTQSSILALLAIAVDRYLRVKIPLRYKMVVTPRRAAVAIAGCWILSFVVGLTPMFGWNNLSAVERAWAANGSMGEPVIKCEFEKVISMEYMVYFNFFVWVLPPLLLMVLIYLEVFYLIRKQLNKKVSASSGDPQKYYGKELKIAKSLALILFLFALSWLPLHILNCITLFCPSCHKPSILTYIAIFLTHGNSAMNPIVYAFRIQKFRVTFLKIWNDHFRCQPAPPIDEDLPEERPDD
Text: (§1) Adenosine Receptor Subtypes Competition Radioligand Binding Assay
(§2) Human recombinant membranes with adenosine receptors were purchased from Receptor Biology, Inc. (USA).

[6] = molecular target: T2, human A3 receptors (Homo sapiens, UniProt P0DMS8); assay: Adenosine receptor subtypes competition radioligand binding assay, A3 receptor ([3H]-NECA); settings: membranes from human A3 receptors transfected to CHO cells, 60 min at 25° C.
T2 construct: purchased Receptor Biology, Inc. (USA); host or cells: CHO cells
T2 sequence (P0DMS8 1-318): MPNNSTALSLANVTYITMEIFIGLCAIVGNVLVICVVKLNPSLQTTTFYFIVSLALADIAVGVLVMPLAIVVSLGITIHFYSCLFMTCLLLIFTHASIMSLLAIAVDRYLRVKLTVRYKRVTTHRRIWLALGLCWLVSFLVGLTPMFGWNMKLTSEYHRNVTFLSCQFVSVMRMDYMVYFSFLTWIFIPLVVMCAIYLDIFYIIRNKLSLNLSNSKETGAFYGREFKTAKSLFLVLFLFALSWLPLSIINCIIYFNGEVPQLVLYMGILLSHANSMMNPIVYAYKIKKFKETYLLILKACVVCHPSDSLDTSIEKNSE
Experimental: as §1, §2
Competitive assays were carried out by incubation of membranes from human A3 receptors transfected to CHO cells, [^3H]-NECA, buffer (20 mM HEPES (pH 7.4), 100 mM NaCl, 10 mM MgCl2, 2 units/ml adenosine deaminase), and unlabelled ligand in a total volume of 0.2 ml for 60 min at 25° C. R-PIA was used to determine nonspecific binding. It was filtered over Schleicher & Schuell GF/52 (presoaked with 0.5% polyethyleneimine) in a Brandel cell harvester. The unbound radioligand was removed with 3×250 μl of 20 mM HEPES (pH 7.4), 100 mM NaCl, 10 mM MgCl2.
In Table 1, binding constants to adenosine A3 receptor obtained for some examples are shown.

Compound | Ki [5] [nM] | Ki [6] [nM] | other results
CNC(=O)[C@H]1O[C@@H](n2cnc3c(NCc4cccc(I)c4)ncnc32)[C@H](O)[C@@H]1O [IB-MECA, N6-(3-iodobenzyl)-adenosine-5′-N-methyluronamide] |  |  | Effect on disease signs and symptoms [1]: improvement of disease signs and symptoms; Safety and tolerability [1]: safe, well tolerated; Effect on intestinal inflammation and spontaneous colitis [2]: ameliorate intestinal inflammation and spontaneous colitis; Effect of pretreatment on ischemia induced renal failure [3]: harmful; Effect on clinical and pathological manifestations of uveitis [4]: inhibited the clinical and pathological manifestations of uveitis
N#Cc1sc(NC(=O)c2ccc(C(=O)O)s2)nc1-c1ccccc1 [Example 22, 5-(5-cyano-4-phenylthiazol-2-ylcarbamoyl)thiophene-2-carboxylic Acid] | 87 | 66 | 
COc1ccc(-c2nc(NC(=O)c3cccc(C(=O)O)c3)sc2C#N)cn1 [Example 37, 3-(5-cyano-4-(6-methoxypyridin-3-yl)thiazol-2-ylcarbamoyl)benzoic Acid] | > 1000 | 99 | 
N#Cc1sc(NC(=O)c2ccc(C(=O)O)s2)nc1-c1ccccc1F [Example 15, 5-(5-cyano-4-(2-fluorophenyl)thiazol-2-ylcarbamoyl)thiophene-2-carboxylic Acid] | > 500 | 99 | 
N#Cc1sc(NC(=O)c2ccc(C(=O)O)s2)nc1-c1ccc(F)cc1 [Example 13, 5-(5-cyano-4-(4-fluorophenyl)thiazol-2-ylcarbamoyl)thiophene-2-carboxylic Acid] | 131 | 66 | 

Now from value to compound, other results behind:

Ki [5] [nM] | Ki [6] [nM] | Compound | other results
> 1000 | 23 | COc1ccc(-c2nc(NC(=O)c3ccc(C(=O)O)s3)sc2C#N)cc1 [Example 8, 5-(5-cyano-4-(4-methoxyphenyl)thiazol-2-ylcarbamoyl)thiophene-2-carboxylic Acid] | 
 | 36 | N#Cc1sc(NC(=O)c2ccc(C(=O)O)s2)nc1-c1cccs1 [Example 25, 5-((5-cyano-4-(thiophen-2-yl)thiazol-2-yl)carbamoyl)thiophene-2-carboxylic Acid] | 
34 | 21 | O=C(O)c1ccc(C(=O)Nc2nc(-c3ccccc3)c(Cl)s2)s1 [Example 38, 5-(5-chloro-4-phenylthiazole-2-ylcarbamoyl)thiophene-2-carboxylic Acid] | 
> 1000 | 10 | COc1ccc(-c2nc(NC(=O)c3cccc(C(=O)O)c3)sc2C#N)cc1 [Example 6, 3-(5-cyano-4-(4-methoxyphenyl)thiazol-2-ylcarbamoyl)benzoic Acid] | 
 | 12 | N#Cc1sc(NC(=O)c2ccc(C(=O)O)s2)nc1-c1cc(Cl)cs1 [Example 26, 5-((4-(4-chlorothiophen-2-yl)-5-cyanothiazol-2-yl)carbamoyl)thiophene-2-carboxylic Acid] | 
64 | 10 | O=C(O)c1ccc(C(=O)Nc2nc(-c3ccccc3)c(F)s2)s1 [Example 41, 5-(5-fluoro-4-phenylthiazol-2-ylcarbamoyl)thiophene-2-carboxylic Acid] | 
> 1000 | 24 | COc1ccc(-c2nc(NC(=O)c3ccc(C(=O)O)s3)sc2Cl)cc1 [Example 44, 5-(5-chloro-4-(4-methoxyphenyl)thiazol-2-ylcarbamoyl)thiophene-2-carboxylic Acid] | 
